Earlier results as cited in the CATMoS acute toxicity set (Mansouri et al. 2021).
Several values for one entry are separate records, joined by “and”; a condition that tells them apart may be missing. Equal values may be shown once.

Test: rat acute oral toxicity
Conditions: in vivo
In the case of `NC(=O)c1ccc2nc(C(F)(F)F)[nH]c2c1`, the LD50 is listed as 31.6 mg/kg.
For `CC(=O)OC1CC2(O)C(CCC3(C)C(c4ccc(=O)oc4)CCC32O)C2(C)CCC(O)C=C12` (stereo not drawn), the LD50 is listed as 4.2 mg/kg.
For `OCCN1CCN(CCC=C2c3ccccc3Sc3ccc(Cl)cc32)CC1`, the LD50 is given as 660 mg/kg.
In the case of `CCc1c(C)nc2cccc(C)n2c1=O`, the LD50 is given as 690 mg/kg.
For `Nc1ccc(O)c2c1C(=O)c1c(O)cc(-c3ccc(O)cc3)c(N)c1C2=O`, the LD50 is given as 6380 mg/kg.
In the case of `CC(NC(C)(C)C)C(=O)c1cccc(Cl)c1` (stereo not drawn), the LD50 is given as 482 mg/kg and 600 mg/kg.
In the case of `C=C1C(C)(C)C2(Cl)C(Cl)(Cl)C(Cl)(Cl)C1(Cl)C2(Cl)Cl` (stereo not drawn), the LD50 is given as 40 mg/kg.
In the case of `CCN(CC)CCCC(C)Nc1c2cc(Cl)ccc2nc2ccc(OC)cc12` (stereo not drawn), the LD50 is given as 4400 mg/kg.
In the case of `CCC(=O)OC1(c2ccccc2)CCN(C)CC1CC` (stereo not drawn), the LD50 is given as 175 mg/kg.
In the case of `NC(=O)c1cc(C(=O)CBr)ccc1O`, the LD50 is given as 800 mg/kg.
In the case of `C=CCC(C(=O)NC(N)=O)C(C)C` (stereo not drawn), the LD50 is listed as 1050 mg/kg.
In the case of `CCN(Cc1ccc(Cl)nc1)/C(=C/[N+](=O)[O-])NC`, the LD50 is given as 1580 mg/kg.
In the case of `C#CCOC(C)=O`, the LD50 is given as 250 mg/kg.
For `CCOC(=O)C1(CCCCCCOc2ccc(Cl)cc2)CO1` (stereo not drawn), the LD50 is given as 250 mg/kg.
In the case of `CNCCCC12CC(c3ccccc31)c1ccccc12`, the LD50 is given as 1320 mg/kg.
For `CC(C(=O)O)c1ccc2c(c1)CC(C(C)C)C2` (stereo not drawn), the LD50 is given as 1500 mg/kg.
In the case of `CCOP(=O)(OCC)Sc1c(Cl)c(Cl)c(Cl)c(Cl)c1Cl`, the LD50 is given as 925 mg/kg.
In the case of `CCOc1cc2c(cc1OCC)C1CC(=O)C(CCC#N)CN1CC2` (stereo not drawn), the LD50 is listed as 780 mg/kg.
In the case of `CCCC[P+](CCCC)(CCCC)CCCC`, the LD50 is given as 916 mg/kg and 420 mg/kg.
For `CN(C)CCN(Cc1ccsc1)c1ccccn1`, the LD50 is given as 525 mg/kg.
For `OCC1OC(n2cnc3c(S)ncnc32)C(O)C1O` (stereo not drawn), the LD50 is listed as 900 mg/kg.
For `N#CCCCCCN`, the LD50 is listed as 820 mg/kg.
For `COc1ccc2c(c1)OC(C)(C)C(c1ccccc1)C2c1ccc(OCC2CO2)cc1` (stereo not drawn), the LD50 is listed as 800 mg/kg.
In the case of `O=[N+]([O-])O[C@@H]1CO[C@H]2[C@@H]1OC[C@@H]2O`, the LD50 is listed as 2010 mg/kg.
For `ClCC=CCCl`, the LD50 is listed as 89 mg/kg.
In the case of `CN(SC(Cl)(Cl)Cl)C(=O)Oc1cccc2c1OC(C)(C)C2`, the LD50 is given as 125 mg/kg.
In the case of `CNC(=O)ON=C1SCCOC1(C)C`, the LD50 is listed as 0.6 mg/kg.
In the case of `COC(=O)c1cccc(C(=O)OC)c1`, the LD50 is listed as 4390 mg/kg.
For `CNC(=O)CSP(=O)(OC)SC` (stereo not drawn), the LD50 is given as 100 mg/kg.
For `Clc1c(Cl)c(Cl)c2c(c1Cl)Oc1c(Cl)c(Cl)c(Cl)c(Cl)c1O2`, the LD50 is given as 1 mg/kg.
For `COc1cccc([C@@]2(O)CCCC[C@H]2CN(C)C)c1`, the LD50 is given as 228 mg/kg.
For `CCOP(=S)(OCC)OCCS(=O)CC` (stereo not drawn), the LD50 is given as 100 mg/kg.
In the case of `Cc1ccc2c(-c3cccc(O)c3)nc(=O)n(C(C)C)c2c1`, the LD50 is listed as 1600 mg/kg.
In the case of `CCCCC(CC)C(=O)OCCOCCOCCOCCOC(=O)C(CC)CCCC` (stereo not drawn), the LD50 is listed as 18000 mg/kg.
In the case of `CC(O)C1Sc2ccccc2N(CCCN(C)C)C1c1ccccc1` (stereo not drawn), the LD50 is given as 800 mg/kg.
For `CCCSP(=O)(OC)OC`, the LD50 is given as 9.4 mg/kg.
For `O=c1[nH]c2ccc(Cl)cc2o1`, the LD50 is listed as 1200 mg/kg.
In the case of `CCCCCCCCOC(C[n+]1ccccc1)c1ccc(C(C)(C)C)cc1` (stereo not drawn), the LD50 is given as 250 mg/kg.
In the case of `C=CC(=O)OCCCCCCCCCC`, the LD50 is listed as 6460 mg/kg.
For `O=[N+]([O-])c1cc([N+](=O)[O-])c2nc(C(F)(F)F)[nH]c2c1`, the LD50 is listed as 11.5 mg/kg.
In the case of `C1N2CN3CN1CN(C2)C3`, the LD50 is listed as 9200 mg/kg.
For `Oc1ccccc1-c1ccccc1`, the LD50 is given as 656 mg/kg and 1050 mg/kg.
In the case of `CCCCCCCCCCCCN(C)C`, the LD50 is given as 800 mg/kg.
In the case of `CC1(C)CC1CC1C(=O)N(c2ccccc2)N(c2ccccc2)C1=O` (stereo not drawn), the LD50 is given as 800 mg/kg.
In the case of `CN(C)CCN`, the LD50 is listed as 1140 mg/kg.
For `CCCCCOC(CBr)c1ccc(C(C)C)cc1` (stereo not drawn), the LD50 is given as 250 mg/kg.
For `COC(=O)C1C2C=CC(C2)C1C(=O)OC` (stereo not drawn), the LD50 is given as 1000 mg/kg.
In the case of `CC(=O)Oc1ccc(C#N)cc1`, the LD50 is listed as 500 mg/kg.
For `Nc1cc(-c2cccs2)no1`, the LD50 is listed as 1850 mg/kg.
For `COC(F)=C(C(F)(F)F)C(F)(F)F`, the LD50 is listed as 1070 mg/kg.
In the case of `Clc1ccc(N2N=N[C@@H]3[C@@H]4C[C@@H]([C@H]5N=N[C@@H]45)[C@@H]32)cc1`, the LD50 is given as 261 mg/kg.
For `OCC1COC(c2ccccc2)O1` (stereo not drawn), the LD50 is listed as 3150 mg/kg.
In the case of `Cc1c(Cl)c(Cl)c(Cl)c2[nH]c(C(F)(F)F)nc12`, the LD50 is listed as 6.49 mg/kg.
In the case of `O=C1OCCC1N(C(=O)C1CC1)c1cccc(Cl)c1` (stereo not drawn), the LD50 is given as 174 mg/kg.
For `FC(F)(F)c1nc2c(C(F)(F)F)cc(Cl)cc2[nH]1`, the LD50 is listed as 1.66 mg/kg.
For `O=C(O)Cc1c(Cl)ccc(Cl)c1Cl`, the LD50 is listed as 1780 mg/kg.
For `CC(C)Cc1ccc(C(C)C(=O)OCc2ccccn2)cc1` (stereo not drawn), the LD50 is listed as 1440 mg/kg.
In the case of `CCOP(=O)(OCC)SCC`, the LD50 is given as 27 mg/kg.
For `CCOP(=S)(NC(C)CC)Oc1cc(C)ccc1[N+](=O)[O-]` (stereo not drawn), the LD50 is given as 630 mg/kg.
For `Clc1cccc(Cl)c1N=C1NCCN1`, the LD50 is listed as 126 mg/kg.
For `CCc1ccc2c(c1)C(=O)c1ccccc1C2=O`, the LD50 is listed as 2800 mg/kg.
For `CC[N+](CC)(CC)Cc1ccccc1`, the LD50 is listed as 2220 mg/kg.
In the case of `CCN(CC)CCOC(=O)C(O)(c1ccccc1)c1ccccc1`, the LD50 is listed as 184 mg/kg.
In the case of `CCc1nc(N)nc(N)c1-c1ccccc1`, the LD50 is listed as 126 mg/kg.
In the case of `CC(O)c1ccccc1` (stereo not drawn), the LD50 is listed as 400 mg/kg.
In the case of `CCCOC(=O)CC`, the LD50 is given as 10300 mg/kg.
In the case of `COc1ccc(C(=O)CCC(=O)O)c2cc(C)oc12`, the LD50 is given as 2160 mg/kg.
In the case of `CC(COCCN)COCCCN` (stereo not drawn), the LD50 is listed as 242 mg/kg.
For `c1ccc(C2(c3ccccc3)COC(c3ccccc3)(C3CCCCN3)OC2)cc1` (stereo not drawn), the LD50 is listed as 300 mg/kg.
For `CN(C)N=Nc1ccccc1`, the LD50 is given as 310 mg/kg.
In the case of `S=c1[nH]c(=S)[nH]c(=S)[nH]1`, the LD50 is given as 9500 mg/kg.
For `O=c1c(O)c(-c2ccc(O)c(O)c2)oc2cc(O)cc(O)c12`, the LD50 is given as 161 mg/kg.
For `CC1CCC(=O)CC1`, the LD50 is listed as 800 mg/kg.
